Assay results reported in patent US4406883A, “Controlled release suppositories consisting essentially of a linear polymer particularly, polyvinyl pyrrolidones” (Merrell Dow Pharmaceuticals Inc., priority 1981, dated 1983).
Counter-ions that a name gives are not always drawn. Like-named read-outs stand apart in the source and are kept apart here.

Tests used:
[1] = In vitro trial: drug release from extruded suppositories in 150 ml water at 37° C.; format: physicochemical; details: phenylephrine hydrochloride vs lignocaine hydrochloride, alone and together (FIGS. 6-8)
Experimental: Mixes for the in vivo and the in vitro trails were made by dissolving the required quantities of drug in water which was then added to the polymer and thoroughly mixed using a spatula. […] The resulting damp, spongy particles were squeezed together by hand to form a dough-like mixture. The mixes were extruded through a nozzle of a 50 ml plastic syringe to form a long rod (9 mm diameter). Immediately after, suppositories were made by cutting the rod into 3 cm length and were stored in an air-tight container prior to use.
Drug release rates were studied in four ways:
(i) release from suppositories containing 20 mg phenylephrine hydrochloride only (in duplicate).
(iii) release from suppositories containing both drugs in the above amounts (in triplicate).
The concentration of drug in the aliquot was immediately determined spectrophotometrically (q.v.) after which the aliquot sample was returned to the solution. […]
Analytical background effects (due to the polymer) were measured by repeating the spectrophotometric procedure using a suppository containing no drug. […]
The absorbences of the samples taken during the in vitro trial were measured on the spectrophotometer and the concentrations of the dissolved drugs determined by reference to the calibration curves.
Drug release rates were measured in the in vitro trials for suppositories containing each drug alone and both drugs together. […]

[2] = male beagle
Experimental: Four smaller pieces were randomly cut from the remainder and placed into weighed vials. Distilled water (10 ml) was added to each vial and the contents were allowed to dissolve overnight. Triplicate aliquots (0.1 ml) were removed for the determination of radioactivity as for plasma.
The evacuated suppository was separated from the faecal pellet and weighed. The sample was then homogenised with a known quantity of purified sand (sand to sample ratio, 2:1).
Four pieces of the sand/suppository mixture were placed in weighed vials. Distilled water (4 ml) was added to each vial and the contents were allowed to dissolve overnight. Unisolve 1 (10 ml) was added and the resulting translucent gel was mixed by vigorous shaking. The samples were assayed for radioactivity.
They were then re-weighed and the moisture content of the evacuated suppository was determined.

[3] = male beagle, rectal, dose 38.93 μCi

CCN(CC)CC(=O)Nc1c(C)cccc1C [lignocaine hydrochloride]
proportion of drug released, comparison of drugs [1]: approximately the same

CNC[C@H](O)c1cccc(O)c1 [phenylephrine hydrochloride]
proportion of drug released, comparison of drugs [1]: approximately the same

[^14 C]-lignocaine hydrochloride
time of maximum plasma concentration of radioactivity (dog, rectal): 8 h | maximum plasma concentration of radioactivity (dog, rectal, at 8 h): 0.00295 %/ml of the administered radioactive dose | % total administered dose, liver (male beagle, 48 h): 0.36% | % total administered dose, rectal contents (male beagle, 48 h): 0.086% | % total administered dose, rectum (male beagle, 48 h): 0.026% | cumulative % total administered dose, through liver (male beagle, 48 h): 0.375% | cumulative % total administered dose, through rectal contents (male beagle, 48 h): 0.487% | cumulative % total administered dose, through rectum (male beagle, 48 h): 0.401% | cumulative % total administered dose, through urine and faeces (male beagle, 48 h): 48.687% | total radioactivity recovered, bile (male beagle, 48 h): 0.006 μCi | total radioactivity recovered, liver (male beagle, 48 h): 0.14 μCi | total radioactivity recovered, rectal contents (male beagle, 48 h): 0.03 μCi | total radioactivity recovered, rectum (male beagle, 48 h): 0.01 μCi | total radioactivity recovered, urine and faeces (male beagle, 48 h): 18.77 μCi | concentration of radioactivity in plasma (male beagle, rectal, 0 h): 0 % administered radioactive dos | radioactive drug equivalents in plasma (male beagle, rectal, 0 h): 0 μg equivalents/ml plasma | concentration of radioactivity in plasma (male beagle, rectal, 0.5 h): 0.00081 % administered radioactive dos | radioactive drug equivalents in plasma (male beagle, rectal, 0.5 h): 0.75 μg equivalents/ml plasma | concentration of radioactivity in plasma (male beagle, rectal, 1 h): 0.0014 % administered radioactive dos | radioactive drug equivalents in plasma (male beagle, rectal, 1 h): 1.33 μg equivalents/ml plasma | concentration of radioactivity in plasma (male beagle, rectal, 2 h): 0.0022 % administered radioactive dos | radioactive drug equivalents in plasma (male beagle, rectal, 2 h): 2.08 μg equivalents/ml plasma | concentration of radioactivity in plasma (male beagle, rectal, 4 h): 0.00291 % administered radioactive dos | radioactive drug equivalents in plasma (male beagle, rectal, 4 h): 2.72 μg equivalents/ml plasma | concentration of radioactivity in plasma (male beagle, rectal, 8 h): 0.00295 % administered radioactive dos | radioactive drug equivalents in plasma (male beagle, rectal, 8 h): 2.75 μg equivalents/ml plasma | concentration of radioactivity in plasma (male beagle, rectal, 24 h): 0.00267 % administered radioactive dos | radioactive drug equivalents in plasma (male beagle, rectal, 24 h): 2.49 μg equivalents/ml plasma | concentration of radioactivity in plasma (male beagle, rectal, 48 h): 0.00062 % administered radioactive dos | radioactive drug equivalents in plasma (male beagle, rectal, 48 h): 0.58 μg equivalents/ml plasma | total radioactivity excreted, total (male beagle, rectal, 48 h, dose 38.93 μCi): 18.77 μCi | total radioactivity excreted, 0-24 h urine [3]: 13.45 μCi | total radioactivity excreted, 24-48 h urine [3]: 2.19 μCi | total radioactivity excreted, total faeces [3]: 3.13 μCi | % total administered dose in evacuated suppository [2]: 27.58% | radioactive dose remaining in evacuated suppository ([2]; dose 38.93 μCi): 10.74 μCi
